Experiment [1] deals with MLKL phosphorylation in HT29-L23 human colorectal adenocarcinoma cells. The experiment in a line: MLKL Phosphorylation High-Content Assay. As to conditions: 6 h, necroptosis induced with TNFα, SMAC mimetic and Z-VAD, read-out: pMLKL (IC50). Format: cell-based. A digest of the protocol:
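HT29-L23 cells pretreated 30 min at 37 °C with compound (6.25 to 0.106 μM final), then necroptosis induced with TNFα 35 ng/mL, SMAC mimetic 700 nM and Z-VAD 140 nM for 6 h. Fixed cells immunostained for MLKL pS358 and imaged; IC50 and Ymax from 4-parameter logistic fit.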

In experiment [2] the target is His-GST-TVMV-hRIPK1(1-324) (Homo sapiens (Human), UniProt Q13546). The experiment in a line: RIPK1 HTRF Binding Assay. Particulars: HTRF binding, 1 h at rt; read-out: RIPK1 (IC50). The gist of the method: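 HTRF probe-displacement binding: 1 nM His-GST-TVMV-hRIPK1(1-324) (baculovirus construct), 90.6 nM probe, 0.2 nM anti-GST-Tb in 20 mM HEPES, 10 mM MgCl2, 0.015% Brij-35, 4 mM DTT, 0.05 mg/mL BSA. Incubated 1 h at rt; FRET 520/495 nm ratio, inhibition relative to DMSO-only wells.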
Sequence of His-GST-TVMV-hRIPK1(1-324) (Q13546 1-324): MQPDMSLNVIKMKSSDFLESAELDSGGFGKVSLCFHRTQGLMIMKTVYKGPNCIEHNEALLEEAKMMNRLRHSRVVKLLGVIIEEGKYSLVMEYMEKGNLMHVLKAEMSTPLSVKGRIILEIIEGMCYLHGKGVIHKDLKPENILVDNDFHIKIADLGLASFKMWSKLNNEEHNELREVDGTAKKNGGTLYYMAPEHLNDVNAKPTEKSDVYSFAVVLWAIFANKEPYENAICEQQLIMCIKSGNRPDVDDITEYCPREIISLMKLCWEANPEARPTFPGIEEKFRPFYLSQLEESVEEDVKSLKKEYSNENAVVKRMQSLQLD
In general terms: In TR-FRET formats the signal depends on donor and acceptor labels being close together.

pIC50: −log10 of the molar value. Where two headings read alike, the source gives them in different places.

Consider `O=C(CN1CCC(F)(F)CC1)Nc1cn2nc(-c3cccc(C(=O)NCc4cc(OC(F)(F)F)ccc4F)c3F)ccc2n1` [Example 427, 3-{2-[2-(4,4-difluoropiperidin-1-yl)acetamido]imidazo [1,2-b]pyridazin-6-yl}-2-fluoro-N-{[2-fluoro-5-(trifluoromethoxy)phenyl]methyl} benzamide], for which the values for the pIC50 in experiment [1] (Homo sapiens) and in experiment [2] were 8.52 and 8.15, respectively.

Take `O=C(CN1CCC(C(F)(F)F)CC1)Nc1cn2nc(-c3cccc(C(=O)NCC[C@@H](O)c4ccc(Cl)cc4)c3F)ccc2n1` [Example 428, N-[(3R)-3-(4-chlorophenyl)-3-hydroxypropyl]-2-fluoro-3-(2-{2-[4-(trifluoromethyl)piperidin-1-yl]acetamido}imidazo[1,2-b]pyridazin-6-yl)benzamide]: the pIC50 – broadly, the IC50 on a negative log10 scale, so that one unit is a factor of ten – is 8.05 in experiment [1] (Homo sapiens) and 7.92 in experiment [2].

Consider `[2H]C([2H])([2H])[C@H](NC(=O)c1ccc(C)c(-c2ccc3nc(NC(C)=O)cn3n2)c1F)c1cc(OC(F)(F)F)ccc1F` [Example 429, 3-{2-acetamidoimidazo [1,2-b]pyridazin-6-yl}-2-fluoro-N-[(1S)-1-[2-fluoro-5-(trifluoromethoxy)phenyl](2,2,2-Â^2Hâ,f)ethyl]-4-methylbenzamide], for which the pIC50 in experiment [1] (Homo sapiens) was 7.70; in experiment [2], 8.05.

As to `CC(=O)Nc1cn2nc(-c3cc(C(=O)NCc4cc(OC(F)(F)F)ccc4F)ccc3Cl)ccc2n1` [Example 431, 4-chloro-3-{2-acetamidoimidazo [1,2-b]pyridazin-6-yl}-N-{[2-fluoro-5-(trifluoromethoxy)phenyl]methyl} benzamide], the pIC50 in experiment [1] (Homo sapiens) was 7.04; in experiment [2], 8.15.

`CC(=O)Nc1cn2nc(-c3cc(C(=O)NCc4cc(OC(F)(F)F)ccc4F)ccc3F)ccc2n1` [Example 432, 3-{2-acetamidoimidazo [1,2-b]pyridazin-6-yl}-4-fluoro-N-{[2-fluoro-5-(trifluoromethoxy)phenyl]methyl} benzamide]: the results for the pIC50 in experiment [1] (Homo sapiens) and in experiment [2] were 6.83 and 7.44, respectively.

As to “N-({3,5-difluoro-2-[(3S)-oxolan- 3-yloxy]phenyl}methyl)-5-{2- acetamidoimidazo[1,2-b]pyridazin- 6-yl}-2-(D3)methoxypyridine- 3-carboxamide [Example 45]”, the pIC50 was 7.60 in experiment [1] and 7.89 in experiment [2].

Take “N-[(1R)-1-[2-fluoro-5- (trifluoromethyl)- phenyl]ethyl]-2- methyl-5-(2-{2-[4- (trifluoromethyl)piperidin-1- yl]acetamido}imidazo[1,2- b]pyridazin-6-yl)pyridine-3- carboxamide [Example 331]”: the results for the negative logarithm of the IC50 (pIC50) in experiment [1] and in experiment [2] were 7.17 and 7.38, respectively.

With “N-{[3,5-difluoro-2-(oxan-3- yloxy)phenyl]methyl}-5-{2- acetamidoimidazo[1,2-b]pyridazin- 6-yl}-2-(deutero)methoxy-6- methylpyridine-3-carboxamide [Example 170]”, the pIC50 was 8.52 in experiment [1] and 8.40 in experiment [2].

Take “N-{[3,5-difluoro-2-(oxan-4- yloxy)phenyl](deutero)methyl}- 5-{2-acetamidoimidazo[1,2-b] pyridazin-6-yl}- 2-methylpyridine- 3-carboxamide [Example 192]”: the pIC50 was 8.30 in experiment [1] and 8.52 in experiment [2].

(Values after patent publication US11440913B2, “Aminoimidazopyridazines as kinase inhibitors” (BRISTOL-MYERS SQUIBB COMPANY, priority 2017, dated 2022).)
